Our source for the Stability values is ChEMBL document CHEMBL1151494, “Synthesis of new building blocks for peptide nucleic acids containing monomers with variations in the backbone” (Bioorg Med Chem Lett, 1997).

The nature of assay [1]: The stability against nucleases; Active.
Assay [2] deals with Proteinase K (Tritirachium album). As to the kind of experiment: The stability against proteinase K; Active.

Active and inactive are the calls of the source. The rule behind the calls is not given here.

`Cc1cn([C@@H]2C[C@@H](C(=O)NCC(=O)O)N(C(=O)CNC(=O)[C@@H]3C[C@@H](n4cc(C)c(=O)[nH]c4=O)CN3C(=O)CNC(=O)[C@@H]3C[C@@H](n4cc(C)c(=O)[nH]c4=O)CN3C(=O)CNC(=O)[C@@H]3C[C@@H](n4cc(C)c(=O)[nH]c4=O)CN3C(=O)CNC(=O)[C@@H]3C[C@@H](n4cc(C)c(=O)[nH]c4=O)CN3C(=O)CNC(=O)[C@@H]3C[C@@H](n4cc(C)c(=O)[nH]c4=O)CN3C(=O)CNC(=O)[C@@H]3C[C@@H](n4cc(C)c(=O)[nH]c4=O)CN3C(=O)CNC(=O)[C@@H]3C[C@@H](n4cc(C)c(=O)[nH]c4=O)CN3C(=O)[C@@H](N)CCCCN)C2)c(=O)[nH]c1=O`: the Stability entry in assay [1] and in assay [2] was “Active” each time.
Turning to `Cc1cn([C@H]2C[C@@H](C(=O)NCC(=O)O)N(C(=O)CNC(=O)[C@@H]3C[C@H](n4cc(C)c(=O)[nH]c4=O)CN3C(=O)CNC(=O)[C@@H]3C[C@H](n4cc(C)c(=O)[nH]c4=O)CN3C(=O)CNC(=O)[C@@H]3C[C@H](n4cc(C)c(=O)[nH]c4=O)CN3C(=O)CNC(=O)[C@@H]3C[C@H](n4cc(C)c(=O)[nH]c4=O)CN3C(=O)CNC(=O)[C@@H]3C[C@H](n4cc(C)c(=O)[nH]c4=O)CN3C(=O)CNC(=O)[C@@H]3C[C@H](n4cc(C)c(=O)[nH]c4=O)CN3C(=O)CNC(=O)[C@@H]3C[C@H](n4cc(C)c(=O)[nH]c4=O)CN3C(=O)[C@@H](N)CCCCN)C2)c(=O)[nH]c1=O`, the Stability result in assay [1] and in assay [2] was “Active” throughout.
As to `Cc1cn(CC(=O)N2C[C@@H](N)C[C@H]2C(=O)NC2C[C@@H](C(=O)N[C@H]3C[C@@H](C(=O)NC4C[C@@H](C(=O)N[C@H]5C[C@@H](C(=O)NC6C[C@@H](C(=O)N[C@H]7C[C@@H](C(=O)NC8C[C@@H](C(=O)N[C@@H](C)C(=O)O)N(C(=O)Cn9cc(C)c(=O)[nH]c9=O)C8)N(C(=O)Cn8cc(C)c(=O)[nH]c8=O)C7)N(C(=O)Cn7cc(C)c(=O)[nH]c7=O)C6)N(C(=O)Cn6cc(C)c(=O)[nH]c6=O)C5)N(C(=O)Cn5cc(C)c(=O)[nH]c5=O)C4)N(C(=O)Cn4cc(C)c(=O)[nH]c4=O)C3)N(C(=O)Cn3cc(C)c(=O)[nH]c3=O)C2)c(=O)[nH]c1=O` (stereo partly drawn), the Stability entry in assay [1] and in assay [2] was “Active” in each case.
Take `Cc1cn(CC(=O)N2C[C@H](N)C[C@H]2C(=O)NC2C[C@@H](C(=O)N[C@@H]3C[C@@H](C(=O)NC4C[C@@H](C(=O)N[C@@H]5C[C@@H](C(=O)NC6C[C@@H](C(=O)N[C@@H]7C[C@@H](C(=O)NC8C[C@@H](C(=O)N[C@@H](C)C(=O)O)N(C(=O)Cn9cc(C)c(=O)[nH]c9=O)C8)N(C(=O)Cn8cc(C)c(=O)[nH]c8=O)C7)N(C(=O)Cn7cc(C)c(=O)[nH]c7=O)C6)N(C(=O)Cn6cc(C)c(=O)[nH]c6=O)C5)N(C(=O)Cn5cc(C)c(=O)[nH]c5=O)C4)N(C(=O)Cn4cc(C)c(=O)[nH]c4=O)C3)N(C(=O)Cn3cc(C)c(=O)[nH]c3=O)C2)c(=O)[nH]c1=O` (stereo partly drawn): the Stability result in assay [1] and in assay [2] was “Active” each time.
